Experimental data taken from patent US5045566A, “Novel imidate insecticides” (ICI Americas Inc., priority 1989, dated 1991).

How the values were obtained:
Type in all cases: in vivo
[1] = tested on: Black Bean Aphid [Aphis fabae (Scop.)]; assay: Black bean aphid spray test on nasturtium (BBA), 48 hours; settings: percent of test compound in sprayed solution
Procedure, shortened: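 LC50, given as percent test compound in the sprayed liquid, was calculated from dosage-mortality curves using concentrations from 0.05% downward. Sprays in 50:50 acetone-water went to runoff on ~5 cm nasturtiums carrying 25-50 aphids of mixed ages, one day after infestation. Deaths were counted 48 h later under greenhouse conditions.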

[2] = tested on: Tobacco Budworm [Heliothis virescens (Fabricius)] eggs; assay: Tobacco budworm eggs (TBW-E); settings: percent in solution; 2-day old eggs
Procedure, shortened: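 Paper towel patches bearing 2-day old eggs were dipped in acetone solutions of compound, then set in petri dishes over larval rearing medium at 78° F. Mortality was scored once all control eggs had hatched and larvae were feeding. LC50, from dosage-mortality curves, is given as percent compound in solution.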

[3] = tested on: Housefly [Musca domestica]; assay: Housefly contact mortality in dishes (HF), 48 hours; settings: μg of test compound per 25 female flies
Procedure, shortened: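 Dry-film exposure of 25 female houseflies per cage, 48 h; LC50 as μg per 25 flies.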

[4] = tested on: Cabbage Looper [Trichoplusia ni (Hubner)]; assay: Cabbage looper leaf dip (CL), 3-5 days; settings: percent in solution, second-instar larvae
Procedure, shortened: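 Compounds in 50-50 acetone-water were applied by dipping squash cotyledons (about 1×1.5 in) for 2-3 s; dried leaves went into petri dishes on moist filter paper with 5 second-instar larvae under high humidity. Mortality was scored after 3-5 days; LC50 from dosage-mortality curves, as percent compound in solution.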

[5] = tested on: Maize weevil [Sitophilus zeamais (Motschulsky)]; assay: Maize weevil on dipped corn seeds (MW), 48 hours; settings: percent in solution, adult weevils
Procedure: The compounds in Tables 1 and 2 above were tested for insecticidal activity using the following testing procedures. LC50 values, based on the results of these tests and calculated according to dosage-mortality curves, are expressed in Table 3.
Maize weevil [Sitophilus zeamais (Motschulsky)]:
Test compounds were diluted in a 50:50 acetone:water solution. Four corn seeds [Zea mays (L.)] which had been immersed in test solutions for 2-3 seconds and allowed to dry were placed in containers together with 10 adult weevils. The containers were covered and kept at a temperature of about 25° C. Mortality was recorded after 48 hours. Test concentrations ranged from 0.01% down to that at which 50% mortality occurred. The LC50 values are expressed below in Table 3 under the heading "MW" in terms of percent of the test compound in solution.

Clc1ccc(N=C(OCc2cccc(Oc3ccccc3)c2)C2CCC2)cc1 [Compound 8]
LC50 BBA [1]: 0.03%
LC50 TBW E (eggs) [2]: > 0.1%
LC50 HF [3]: 50 µg
LC50 CL [4]: 0.01%
LC50 MW [5]: > 0.01%

CC(C)(C)C(=Nc1cccc(C(F)(F)F)c1)OCc1cccc(Oc2ccccc2)c1 [Compound 88]
LC50 BBA [1]: > 0.05%
LC50 TBW E (eggs) [2]: > 0.1%
LC50 HF [3]: > 100 µg
LC50 CL [4]: 0.018%
LC50 MW [5]: > 0.01%

Fc1ccc(Oc2cccc(COC(=Nc3ccc(F)c(Cl)c3)C3CC3)c2)cc1 [Compound 116]
LC50 HF [3]: 15 µg
LC50 CL [4]: 0.00025%
LC50 MW [5]: > 0.01%

CCc1ccc(N=C(OCc2cccc(Oc3ccccc3)c2)C(C)(C)C)cc1 [Compound 163]
LC50 BBA [1]: > 0.05%
LC50 TBW E (eggs) [2]: > 0.1%
LC50 HF [3]: > 100 µg
LC50 CL [4]: 0.004%
LC50 MW [5]: > 0.01%

CC(C)C(=Nc1ccc(F)c(Cl)c1)OCc1cccc(Oc2cccc(Cl)c2)c1 [Compound 203]
LC50 BBA [1]: 0.006%
LC50 TBW E (eggs) [2]: 0.06%
LC50 HF [3]: 43 µg
LC50 CL [4]: 0.0025%
LC50 MW [5]: > 0.01%

CC(C)C(=Nc1cc(F)c(Cl)cc1Cl)OCc1ccc(F)c(Oc2ccc(F)cc2)c1 [Compound 292]
LC50 TBW E (eggs) [2]: 0.05%
LC50 HF [3]: 41 µg
LC50 CL [4]: 0.00075%
LC50 MW [5]: > 0.01%

Fc1ccc(Oc2cccc(COC(=Nc3cccc(C(F)(F)F)c3)C3CC3)c2)cc1 [Compound 294]
LC50 TBW E (eggs) [2]: > 0.1%
LC50 HF [3]: > 100 µg
LC50 CL [4]: 0.017%
LC50 MW [5]: > 0.01%

CC(C)C(=Nc1ccc(F)c(Br)c1)OCc1ccc(F)c(Oc2ccccc2)c1 [Compound 299]
LC50 TBW E (eggs) [2]: 0.017%
LC50 HF [3]: 8 µg
LC50 CL [4]: 0.0005%
LC50 MW [5]: > 0.01%

CC(C)C(=Nc1ccc(C(C)(C)C)cc1)OCc1ccc(F)c(Oc2ccc(Cl)cc2)c1 [Compound 301]
LC50 TBW E (eggs) [2]: > 0.1%
LC50 HF [3]: > 100 µg
LC50 CL [4]: 0.008%
LC50 MW [5]: > 0.01%

CC(C)C(=Nc1cccc([N+](=O)[O-])c1)OCc1cccc(Oc2ccccc2)c1 [Compound 302]
LC50 TBW E (eggs) [2]: > 0.1%
LC50 HF [3]: 15 µg
LC50 CL [4]: 0.003%
LC50 MW [5]: > 0.01%

CC(C)C(=Nc1c(F)c(F)cc(F)c1F)OCc1cccc(Oc2ccc(F)cc2)c1 [Compound 304]
LC50 TBW E (eggs) [2]: > 0.1%
LC50 HF [3]: > 100 µg
LC50 CL [4]: 0.0024%
LC50 MW [5]: > 0.01%

CC(Br)C(=Nc1ccc2c(c1)OCO2)OCc1cccc(Oc2ccccc2)c1 (stereo not shown) [Compound 306]
LC50 TBW E (eggs) [2]: 0.1%
LC50 HF [3]: > 100 µg
LC50 CL [4]: 0.005%
LC50 MW [5]: > 0.01%

CC(C)C(=Nc1ccc([N+](=O)[O-])c(C(F)(F)F)c1)OCc1cccc(Oc2ccccc2)c1 [Compound 307]
LC50 TBW E (eggs) [2]: 0.08%
LC50 HF [3]: > 100 µg
LC50 CL [4]: 0.002%
LC50 MW [5]: > 0.01%

CC(C)C(=Nc1ccc(F)c(I)c1)OCc1ccc(F)c(Oc2ccccc2)c1 [Compound 334]
LC50 BBA [1]: 0.0006%
LC50 TBW E (eggs) [2]: 0.013%
LC50 HF [3]: 9 µg
LC50 CL [4]: 0.0007%
LC50 MW [5]: > 0.01%

CC(C)c1ccc(N=C(OCc2cccc(Oc3ccccc3)c2)C2CCC2)cc1 [Compound 339]
LC50 BBA [1]: 0.03%
LC50 TBW E (eggs) [2]: > 0.1%
LC50 HF [3]: > 100 µg
LC50 CL [4]: 0.017%
LC50 MW [5]: > 0.01%

CC(C)C(=Nc1ccc(Cl)c(C(F)(F)F)c1)OCc1ccc(F)c(Oc2ccc(F)cc2)c1 [Compound 340]
LC50 BBA [1]: 0.001%
LC50 TBW E (eggs) [2]: 0.04%
LC50 HF [3]: 34 µg
LC50 CL [4]: 0.00037%
LC50 MW [5]: 0.0069%

CC(C)C(=Nc1cccc(Cl)c1)OCc1ccc(F)c(Oc2ccc(F)cc2)c1 [Compound 341]
LC50 BBA [1]: 0.0005%
LC50 TBW E (eggs) [2]: 0.023%
LC50 HF [3]: 4 µg
LC50 CL [4]: 0.0005%
LC50 MW [5]: > 0.01%

CC(C)C(=Nc1cccc(F)c1)OCc1ccc(F)c(Oc2ccc(F)cc2)c1 [Compound 342]
LC50 BBA [1]: 0.0006%
LC50 TBW E (eggs) [2]: 0.04%
LC50 HF [3]: 4.1 µg
LC50 CL [4]: 0.0008%
LC50 MW [5]: > 0.01%

Cc1ccc(Oc2cccc(COC(=Nc3ccc(C(C)(C)C)cc3)C(C)C)c2)cc1 [Compound 344]
LC50 BBA [1]: 0.008%
LC50 TBW E (eggs) [2]: > 0.1%
LC50 HF [3]: > 100 µg
LC50 CL [4]: 0.024%
LC50 MW [5]: > 0.01%

CC(C)C(=Nc1cccc(OC(F)(F)F)c1)OCc1ccc(F)c(Oc2ccc(Cl)cc2)c1 [Compound 436]
LC50 BBA [1]: 0.0006%
LC50 TBW E (eggs) [2]: < 0.1%
LC50 HF [3]: < 100 µg
LC50 MW [5]: > 0.01%

Fc1ccc(COC(=Nc2ccc(C(F)(F)F)cc2)C2CC2)cc1Oc1ccccc1 [Compound 443]
LC50 BBA [1]: 0.0003%
LC50 HF [3]: < 100 µg
LC50 CL [4]: 0.00015%
LC50 MW [5]: < 0.01%

Fc1ccc(COC(=Nc2ccc(C(F)(F)F)cc2)C2CC2)cc1Oc1ccc(Cl)cc1 [Compound 444]
LC50 BBA [1]: 0.0006%
LC50 HF [3]: > 100 µg
LC50 CL [4]: 0.00015%
LC50 MW [5]: > 0.01%

CC(C)C(=Nc1ccc(F)c(I)c1)OCc1cccc(Oc2ccc(F)cc2)c1 [Compound 449]
LC50 TBW E (eggs) [2]: 0.025%
LC50 HF [3]: 13 µg
LC50 CL [4]: 0.0001%
LC50 MW [5]: 0.0075%

Cc1c(COC(=Nc2ccc(F)cc2)C(C)C)cccc1-c1ccccc1 [Compound 458]
LC50 BBA [1]: > 0.05%
LC50 TBW E (eggs) [2]: > 0.05%
LC50 HF [3]: 100 µg
LC50 CL [4]: 0.007%

CC(C)C(=Nc1ccc2c(c1)OC(C)(C)O2)OCc1cccc(Oc2ccc(Cl)cc2)n1 [Compound 468]
LC50 BBA [1]: 0.05%
LC50 TBW E (eggs) [2]: > 0.1%
LC50 HF [3]: 50 µg
LC50 CL [4]: > 0.1%

CC(C)C(=Nc1cccc(C(F)(F)F)c1)OCc1cccc(Oc2ccncc2)c1 [Compound 469]
LC50 BBA [1]: > 0.05%
LC50 TBW E (eggs) [2]: > 0.1%
LC50 HF [3]: 40 µg
LC50 CL [4]: 0.02%

CC(C)C(=Nc1ccc(F)c(Cl)c1)OCc1cccc(Oc2ccncc2)c1 [Compound 470]
LC50 BBA [1]: > 0.05%
LC50 TBW E (eggs) [2]: > 0.1%
LC50 HF [3]: 25 µg
LC50 CL [4]: 0.02%

CC(C)C(=Nc1cccc(C(F)(F)F)c1)OCc1cccc(Oc2ccc(Cl)cc2)n1 [Compound 477]
LC50 TBW E (eggs) [2]: > 0.1%
LC50 HF [3]: 20 µg
LC50 CL [4]: 0.0003%
LC50 MW [5]: 0.0076%

CC(C)C(=Nc1ccc(Br)cc1)OCc1coc(Cc2ccccc2)c1 [Compound 478]
LC50 TBW E (eggs) [2]: > 0.1%
LC50 HF [3]: 15 µg
LC50 CL [4]: 0.0037%
LC50 MW [5]: > 0.01%

C=CCOc1cccc(COC(=Nc2cccc(C(F)(F)F)c2)C(C)C)c1 [Compound 480]
LC50 BBA [1]: > 0.05%
LC50 TBW E (eggs) [2]: > 0.1%
LC50 HF [3]: > 100 µg
LC50 CL [4]: 0.01%

CC(C)C(=Nc1cccc(C(F)(F)F)c1)OCc1coc(Cc2ccccc2)c1 [Compound 482]
LC50 TBW E (eggs) [2]: > 0.1%
LC50 HF [3]: 36 µg
LC50 CL [4]: 0.01%
LC50 MW [5]: > 0.01%

CC(C)C(=Nc1ccc2c(c1)OCO2)OCc1coc(Cc2ccccc2)c1 [Compound 483]
LC50 TBW E (eggs) [2]: 0.05%
LC50 HF [3]: 6 µg
LC50 CL [4]: 0.001%
LC50 MW [5]: > 0.01%

CC(C)C(=Nc1ccc(F)cc1F)OCc1coc(Cc2ccccc2)c1 [Compound 486]
LC50 TBW E (eggs) [2]: > 0.1%
LC50 HF [3]: 15 µg
LC50 CL [4]: > 0.1%
LC50 MW [5]: > 0.01%

CC(C)C(=Nc1ccc(F)c(Cl)c1)OC(C)c1cccc(Oc2ccccc2)n1 (stereo not shown) [Compound 498]
LC50 BBA [1]: > 0.05%
LC50 TBW E (eggs) [2]: > 0.1%
LC50 HF [3]: 49 µg
LC50 CL [4]: 0.002%

CC(C)C(=Nc1cccc(C(F)(F)F)c1)OC(C)c1cccc(Oc2ccccc2)n1 (stereo not shown) [Compound 499]
LC50 BBA [1]: > 0.05%
LC50 TBW E (eggs) [2]: > 0.1%
LC50 HF [3]: 63 µg
LC50 CL [4]: 0.0024%

COCc1c(F)c(F)c(COC(=Nc2ccc3c(c2)OCO3)C(C)C)c(F)c1F [Compound 501]
LC50 BBA [1]: > 0.05%
LC50 TBW E (eggs) [2]: > 0.1%
LC50 HF [3]: 20 µg
LC50 CL [4]: 0.00045%

CC(C)C(=Nc1cccc(C(F)(F)F)c1)OCc1ccnc(Oc2ccc(F)cc2)c1 [Compound 508]
LC50 TBW E (eggs) [2]: > 0.1%
LC50 HF [3]: > 100 µg
LC50 CL [4]: 0.013%
LC50 MW [5]: > 0.01%
